According to patent US20240269139A1, “COMPOUNDS FOR TARGETED PROTEIN DEGRADATION OF KINASES” (DANA-FARBER CANCER INSTITUTE, INC., priority 2020, published 2024):
Several values for one entry are separate records, joined by “and”; a condition that tells them apart may be missing. Identical values can stand only once. Like-named read-outs stand apart in the source and are kept apart here.

Legend:
Format in all cases: cell-based
[1] = biological target: T1, protein kinases (human kinome) (Homo sapiens, UniProt O14965)
T1 sequence (O14965 1-403): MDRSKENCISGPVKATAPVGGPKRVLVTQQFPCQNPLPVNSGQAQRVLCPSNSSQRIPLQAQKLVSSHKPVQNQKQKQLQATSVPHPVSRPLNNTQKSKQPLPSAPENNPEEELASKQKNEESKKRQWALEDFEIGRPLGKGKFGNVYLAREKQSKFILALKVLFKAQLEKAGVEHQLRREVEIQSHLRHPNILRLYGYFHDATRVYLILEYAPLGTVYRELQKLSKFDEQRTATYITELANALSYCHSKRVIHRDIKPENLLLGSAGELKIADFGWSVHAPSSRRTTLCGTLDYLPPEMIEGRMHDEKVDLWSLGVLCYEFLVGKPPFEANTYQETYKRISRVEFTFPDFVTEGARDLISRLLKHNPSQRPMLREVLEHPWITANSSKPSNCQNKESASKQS

[2] = biological target: protein kinases (human kinome) (Homo sapiens, UniProt P16591); settings: for logFC of FER (P16591-1): down; for logFC of FER: FER P16591-1
[3] = biological target: protein kinases (human kinome) (Homo sapiens, UniProt P53671); settings: for logFC LIMK2: LIMK2 (P53671), down; for logFC of LIMK2: LIMK2 P53671
[4] = tested on: protein kinases (human kinome); settings: for logFC LCK: accession P06239-3; for kinases the bifunctional compound degrades: as stated for the structure in the embodiments; for Kinase hits: kinases significantly downregulated vs DMSO (fold change cutoff −1.25, P-value<0.01), ≤8 h, 0.1-5 μM degrader, 7 cell lines; for Total no. kinase hits: number of degraded kinases per library compound; for logFC ABL1: ABL1 (P00519-2); for logFC of SRC: Accession P12931-2
[5] = biological target: protein kinases (human kinome) (Homo sapiens, UniProt P51451); settings: for logFC BLK: BLK (P51451), direction down; for logFC of BLK (P51451): down
[6] = CAMKK1 (Q8N5S9-2), experiment wp045
[7] = experiment wp045, direction of change down
[8] = AURKB Q96GD4-5, experiment wp108
[9] = AURKB Q96GD4-5, experiment wp131
[10] = experiment wp071, direction of change down
[11] = experiment wp131, direction of change down

protein kinases (human kinome) (Homo sapiens, UniProt P51451), sequence (P51451 whole entry): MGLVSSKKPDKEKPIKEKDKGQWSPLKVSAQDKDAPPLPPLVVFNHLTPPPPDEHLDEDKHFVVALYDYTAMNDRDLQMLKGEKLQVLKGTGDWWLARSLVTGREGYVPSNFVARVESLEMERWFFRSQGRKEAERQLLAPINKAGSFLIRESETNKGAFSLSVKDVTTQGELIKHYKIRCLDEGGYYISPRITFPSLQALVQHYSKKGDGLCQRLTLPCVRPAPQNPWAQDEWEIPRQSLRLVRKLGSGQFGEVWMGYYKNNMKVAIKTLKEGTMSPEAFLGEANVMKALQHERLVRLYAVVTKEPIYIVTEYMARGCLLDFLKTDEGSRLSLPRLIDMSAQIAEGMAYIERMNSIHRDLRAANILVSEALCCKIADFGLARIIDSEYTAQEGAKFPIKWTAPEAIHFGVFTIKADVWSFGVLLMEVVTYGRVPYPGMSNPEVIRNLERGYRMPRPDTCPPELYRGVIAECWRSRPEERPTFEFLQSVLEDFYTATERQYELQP
protein kinases (human kinome) (Homo sapiens, UniProt P16591), sequence (P16591 whole entry): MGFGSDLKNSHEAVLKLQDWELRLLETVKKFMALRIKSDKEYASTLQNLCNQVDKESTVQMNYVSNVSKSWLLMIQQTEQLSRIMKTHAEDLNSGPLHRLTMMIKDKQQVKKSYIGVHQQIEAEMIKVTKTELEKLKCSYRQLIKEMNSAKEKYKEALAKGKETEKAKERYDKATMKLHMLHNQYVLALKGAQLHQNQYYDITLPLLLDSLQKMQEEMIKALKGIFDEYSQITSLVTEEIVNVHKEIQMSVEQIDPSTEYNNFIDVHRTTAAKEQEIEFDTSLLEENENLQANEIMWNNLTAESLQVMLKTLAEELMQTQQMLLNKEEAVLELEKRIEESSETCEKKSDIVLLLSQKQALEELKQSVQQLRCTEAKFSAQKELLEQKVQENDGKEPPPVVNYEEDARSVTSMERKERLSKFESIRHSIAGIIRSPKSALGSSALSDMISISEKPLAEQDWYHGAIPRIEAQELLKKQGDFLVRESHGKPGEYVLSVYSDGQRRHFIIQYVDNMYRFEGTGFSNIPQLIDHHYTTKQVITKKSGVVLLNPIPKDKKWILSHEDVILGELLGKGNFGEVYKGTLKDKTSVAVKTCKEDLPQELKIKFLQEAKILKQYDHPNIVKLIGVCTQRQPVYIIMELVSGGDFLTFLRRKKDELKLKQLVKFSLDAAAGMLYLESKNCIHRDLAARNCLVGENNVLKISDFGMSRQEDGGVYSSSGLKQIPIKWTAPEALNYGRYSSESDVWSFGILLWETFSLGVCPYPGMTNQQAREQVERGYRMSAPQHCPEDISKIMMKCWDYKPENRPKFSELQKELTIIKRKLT
protein kinases (human kinome) (Homo sapiens, UniProt P53671), sequence (P53671 whole entry): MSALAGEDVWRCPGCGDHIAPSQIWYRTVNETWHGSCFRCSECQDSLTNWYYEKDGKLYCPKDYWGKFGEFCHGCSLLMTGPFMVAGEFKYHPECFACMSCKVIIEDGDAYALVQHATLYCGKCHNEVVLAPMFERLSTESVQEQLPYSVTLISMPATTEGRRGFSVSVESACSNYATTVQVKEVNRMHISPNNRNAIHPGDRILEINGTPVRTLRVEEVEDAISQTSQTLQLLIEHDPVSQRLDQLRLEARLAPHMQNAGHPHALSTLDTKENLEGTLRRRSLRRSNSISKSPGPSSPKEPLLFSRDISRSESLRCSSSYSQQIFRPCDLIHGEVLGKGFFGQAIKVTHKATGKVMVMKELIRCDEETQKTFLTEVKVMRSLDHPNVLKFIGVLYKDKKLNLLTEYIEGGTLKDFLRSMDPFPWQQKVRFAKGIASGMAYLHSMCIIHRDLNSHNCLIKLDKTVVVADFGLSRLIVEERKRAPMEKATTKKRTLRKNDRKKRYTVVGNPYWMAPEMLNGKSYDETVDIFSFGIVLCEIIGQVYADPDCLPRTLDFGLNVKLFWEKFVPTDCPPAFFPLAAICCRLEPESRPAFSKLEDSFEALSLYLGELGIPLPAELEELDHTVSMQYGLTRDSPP

## CS(=O)(=O)Nc1cccc(-c2csc3cnc(Nc4ccc(N5CCN(CCCCCOc6cccc7c6C(=O)N(C6CCC(=O)NC6=O)C7=O)CC5)cc4)nc23)c1 (centres unmarked) [DB0614, N-(3-(2-((4-(4-(5-((2-(2,6-Dioxopiperidin-3-yl)-1,3-dioxoisoindolin-4-yl)oxy)pentyl)piperazin-1-yl)phenyl)amino)thieno[3,2-d]pyrimidin-7-yl)phenyl)methanesulfonamide]
[1]; experiment wp045
  logFC AURKA (O14965): −0.385
[1]; experiment wp117
  logFC AURKA (O14965): −0.4547
[2]; Experiment wp045
  logFC of FER (P16591-1): −0.7641
[2]; Experiment wp117
  logFC of FER (P16591-1): −0.7725
[2]; experiment wp045
  logFC of FER: −0.7641
[2]; experiment wp117
  logFC of FER: −0.7725
[3]; experiment wp045
  logFC LIMK2: −0.437
  logFC of LIMK2: −0.437
[4]; [6]
  logFC: −0.6487
[4]; Experiment wp045
  logFC of CAMKK1 (Q8N5S9-2): −0.6487
[4]; Experiment wp045, direction down
  logFC MAPK8 (P45983-4): −0.6882
[4]; Experiment wp117
  logFC of MAPK8 (P45983-2): −0.6328
[4]; Experiment wp117, direction down
  logFC MAPK8 (P45983-2): −0.6328
[4]; [7]
  logFC LCK: −0.33
  logFC LCK (P06239-3): −0.33
[4]; MAPK8 P45983-4, experiment wp045
  logFC MAPK8: −0.6882
[4]; PTK2B (Q14289-2), experiment wp117, direction down
  logFC: −1.203
[4]; PTK2B, accession Q14289-2, experiment wp117, direction of change down
  logFC PTK2B: −1.203
[4]
  kinases the bifunctional compound degrades: AAK1, AURKA, BMP2K, CAMKK1, CDK16, CDK4, CDK6, EIF2AK2, FER, GAK, LCK, LIMK2, MAP3K11, MAPK8, MAPK9, NEK9, PLK4, PTK2B, SIK2, STK17A, STK17B, ULK1, ULK3, and WEE1
  Kinase hits: AAK1, AURKA, BMP2K, CAMKK1, CDK16, CDK4, CDK6, EIF2AK2, FER, GAK, LCK, LIMK2, MAP3K11, MAPK8, MAPK9, NEK9, PLK4, PTK2B, SIK2, STKI7A, STKI7B, ULK1, ULK3, WEE1
  Total no. kinase hits: 24
[4]; experiment wp117
  logFC CDK16 (Q00536-2): −0.5528

## Cc1ncsc1-c1ccc([C@H](C)NC(=O)[C@@H]2C[C@@H](O)CN2C(=O)[C@@H](NC(=O)CCOCCOCCN2CCN(c3ccc(Nc4ncc(Cl)c(Nc5ccccc5S(=O)(=O)C(C)C)n4)cc3)CC2)C(C)(C)C)cc1 [FMF.06.098.1]
[1]; experiment wp114
  logFC AURKA (O14965): −0.4151
[1]; experiment wp131
  logFC AURKA (O14965): −0.3471
[2]; Experiment wp108
  logFC of FER (P16591-1): −0.3577
[2]; Experiment wp131
  logFC of FER (P16591-1): −0.4871
[2]; experiment wp108
  logFC of FER: −0.3577
[2]; experiment wp131
  logFC of FER: −0.4871
[3]; experiment wp108
  logFC LIMK2: −0.8226
  logFC of LIMK2: −0.8226
[3]; experiment wp114
  logFC LIMK2: −1.629
  logFC of LIMK2: −1.629
[3]; experiment wp131
  logFC LIMK2: −1.077
  logFC of LIMK2: −1.077
[4]; [8]
  logFC: −0.5246
  logFC AURKB: −0.5246
[4]; [9]
  logFC: −0.6726
  logFC AURKB: −0.6726
[4]; Accession O60566-3, experiment wp108, direction down
  logFC BUB1B: −0.4426
[4]; Accession O60566-3, experiment wp131, direction down
  logFC BUB1B: −0.4232
[4]; Accession P48730-2, experiment wp108, direction down
  logFC CSNK1D: −0.3812
[4]; Accession P48730-2, experiment wp114, direction down
  logFC CSNK1D: −0.4039
[4]; BUB1B (O60566-3), experiment wp108
  logFC BUB1B: −0.4426
[4]; BUB1B (O60566-3), experiment wp131
  logFC BUB1B: −0.4232
[4]; CDK9 (P50750-2) protein abundance, degrader vs DMSO, down
  logFC: −0.7233 and −0.6791
[4]; CSNK1D P48730-2, experiment wp108
  logFC CSNK1D: −0.3812
[4]; CSNK1D P48730-2, experiment wp114
  logFC CSNK1D: −0.4039
[4]; Experiment wp108
  logFC CDK9 (P50750-2): −0.7233
[4]; Experiment wp131, direction down
  logFC PRKAA1 (Q13131-2): −0.3695
[4]; FER (P16591-3), experiment wp114, direction down
  logFC: −0.3986
[4]; FER P16591-3, experiment wp114
  logFC of FER: −0.3986
[4]; experiment wp108, direction of change down
  logFC FGFR1 (P11362-21): −0.4121
[4]; experiment wp131
  logFC ABL2 (P42684-5): −0.6443
  logFC CDK9 (P50750-2): −0.6791
  logFC PRKAA1 (Q13131-2): −0.3695
  logFC of ABL2 (P42684-5): −0.6443
[4]; protein FGFR1 (P11362-21), experiment wp108, down
  logFC FGFR1: −0.4121

## CS(=O)(=O)Nc1cccc(-c2csc3cnc(Nc4ccc(N5CCN(CCOCCOCCOc6cccc7c6C(=O)N(C6CCC(=O)NC6=O)C7=O)CC5)cc4)nc23)c1 (centres unmarked) [RSS0628]
[1]; experiment wp045
  logFC AURKA (O14965): −1.13
[3]; experiment wp045
  logFC LIMK2: −0.7182
  logFC of LIMK2: −0.7182
[4]; [6]
  logFC: −0.3412
[4]; Experiment wp045
  logFC of CAMKK1 (Q8N5S9-2): −0.3412
[4]
  kinases the bifunctional compound degrades: AAK1. AURKA, CAMKK1, CDK4, CDK6, LIMK2, NEK9, PTK2B, STK17A, STK17B, ULK1, ULK3, and WEE1
  Kinase hits: AAK1, AURKA, CAMKK1, CDK4, CDK6, LIMK2, NEK9, PTK2B, STK17A, STK17B, ULK1, ULK3, WEE1
  Total no. kinase hits: 13

## Cn1c(=O)c(-c2c(Cl)cccc2Cl)cc2cnc(Nc3ccc(OCCNC(=O)CCCCCCNC(=O)COc4cccc5c4C(=O)N(C4CCC(=O)NC4=O)C5=O)cc3)nc21 (centres unmarked) [SB1.G.192.1]
[1]; experiment wp071
  logFC AURKA (O14965): −0.8111
[1]; experiment wp081
  logFC AURKA (O14965): −0.7299
[1]; experiment wp131
  logFC AURKA (O14965): −0.6267
[5]; experiment wp071
  logFC BLK: −2.399
[5]; experiment wp081
  logFC BLK: −2.013
[5]; experiment wp131
  logFC BLK: −2.465
[5]; Experiment wp071
  logFC of BLK (P51451): −2.399
[5]; Experiment wp081
  logFC of BLK (P51451): −2.013
[5]; Experiment wp131
  logFC of BLK (P51451): −2.465
[3]; experiment wp081
  logFC LIMK2: −0.371
  logFC of LIMK2: −0.371
[3]; experiment wp131
  logFC LIMK2: −0.5544
  logFC of LIMK2: −0.5544
[4]; experiment wp071
  logFC ABL1: −1.417
  logFC of SRC: −2.578
  logFC ABL1 (P00519-2): −1.417
[4]; experiment wp081
  logFC ABL1: −1.189
  logFC of SRC: −2.113
  logFC ABL1 (P00519-2): −1.189
[4]; Accession P06241-2, experiment wp071
  logFC FYN: −1.595
[4]; Accession P06241-2, experiment wp081
  logFC FYN: −0.9994
[4]; Accession P06241-2, experiment wp131
  logFC FYN: −0.9918
[4]; experiment wp131
  logFC of SRC: −2.127
  logFC ABL2 (P42684-5): −2.8
  logFC of ABL2 (P42684-5): −2.8
[4]; Experiment wp071, direction down
  logFC TNK2 (Q07912-3): −1.728
[4]; Experiment wp081, direction down
  logFC TNK2 (Q07912-3): −0.9024
[4]; FYN P06241-2, experiment wp071
  logFC FYN: −1.595
[4]; FYN P06241-2, experiment wp081
  logFC FYN: −0.9994
[4]; FYN P06241-2, experiment wp131
  logFC FYN: −0.9918
[4]; [10]
  logFC LCK: −1.767
  logFC LCK (P06239-3): −1.767
[4]; [11]
  logFC LCK: −1.701
  logFC LCK (P06239-3): −1.701
[4]; TNK2 (Q07912-3), experiment wp071, direction down
  logFC: −1.728
[4]; TNK2 (Q07912-3), experiment wp081, direction down
  logFC: −0.9024
